# In patent US8747881B2, “Intraluminal medical devices in combination with therapeutic agents” (Cordis Corporation, priority 2003, dated 2014):
# Columns and labels:
# [1] = Drug concentration in liquid formulations by liquid chromatography / HPLC; assay type: physicochemical
# Experimental: Table 8, shown below, summarizes the concentrations of the excipient, the co-solvents and the drug for four different liquid formulations in accordance with exemplary embodiments of the present invention.
# In another exemplary embodiment, the liquid formulation of sirolimus comprises water and ethanol as co-solvents and Vitamin E TPGS as the excipient. The liquid formulation was created utilizing the following process. Two hundred milligrams of sirolimus and two grams of ethanol were added to a pre-weighed twenty milliliter scintillation vial. The vial was vortexed and sonicated until the sirolimus was completely dissolved. Approximately six hundred milligrams of Vitamin E TPGS was then added to the solution of ethanol and sirolimus. The vial was vortexed again until a clear yellowish solution was obtained. Nitrogen gas was then used to reduce the amount of ethanol in the vial to approximately two hundred twenty-nine milligrams. In a separate vial, three hundred milligrams of Vitamin E TPGS was dissolved in eleven milliliters of purified water while undergoing vortexing. The Vitamin E TPGS and water solution was then added to the first vial containing the sirolimus, Vitamin E TPGS and ethanol. The first vial was then vortexed vigorously and continuously for three minutes. […] The foam gradually disappeared after sitting at room temperature. […]
# [2] = test system: human coronary artery smooth muscle cells; assay: Anti-proliferative activity in non-synchronized cultured cells stimulated with two percent fetal bovine serum; assay type: cell-based; settings: for effect on the anti-proliferative activity of rapamycin when added: non-synchronized cells, added to cells treated with rapamycin
# Description: The multiple curves represent various concentrations of mycophenolic acid ranging from zero to one thousand nanomolar concentrations. […] This potentiation observed in cultured coronary artery smooth muscle cells preferably translates to an enhancement in anti-restenotic efficacy following vascular injury and a reduction in the required amount of either agent to achieve the desired anti-restenotic effect.
# FIG. 58 illustrates, in graphical format, the anti-proliferative activity of cladribine in non-synchronized cultured human coronary artery smooth muscle cells stimulated with two percent fetal bovine serum.
# The multiple curves represent various concentrations of cladribine ranging from zero to nine hundred nanomolar concentrations. […] As illustrated, the percent inhibition increases substantially as the dose of cladribine increases.
# [3] = test system: human smooth muscle cells; assay: Cladribine Example: PDGF-stimulated cell proliferation, smooth muscle cells; assay type: cell-based; settings: from the IC50 values
# Experimental: To assess the ability of cladribine to prevent cell proliferation, human smooth muscle or endothelial cells (Clonetics, Walkersville, Md.) were seeded at a density of 2000 cells/cm^2 (approximately 3600 cells/well) into each well of 12-well plates and cultured with 1.5 ml of growth medium containing five percent fetal calf serum (FCS). After twenty-four hours, the growth medium was changed and fresh medium containing 10 ng/ml platelet-derived growth factor AB (PDGF AB; LIFE Technologies), as well as various concentrations of cladribine (0.001-10,000 nM) were added with triplicate wells. Medium was replaced with fresh cladribine-containing medium after three days. On day six, cells were detached by trypsinization to yield a cell suspension, lightly centrifuged to pellet and then counted manually using a Neubauer hemocytometer system. Cell viability was assessed by trypan blue exclusion.
# [4] = test system: human coronary artery smooth muscle cells; assay: Anti-proliferative activity in synchronized cultured cells stimulated with two percent fetal bovine serum; assay type: cell-based; settings: for effect on the anti-proliferative activity of rapamycin when added: added to cells treated with rapamycin
# Description: (§1) The multiple curves represent various concentrations of topotecan ranging from zero to three hundred nanomolar concentrations.
# (§2) The multiple curves represent various concentrations of etoposide ranging from zero to eight hundred nanomolar concentrations.
# The multiple curves represent various concentrations of Panzem® ranging from zero to 100 micromolar concentrations.
# cell viability = assay: Cell viability assay; assay type: cell-based
# Description: as §1, §2
# [5] = test system: human coronary artery smooth muscle cell; assay: MTS cytotoxicity assay; assay type: cell-based; settings: concentrations up to 30,000.00 nanomolar, FIG. 69
# Description: Typically, a control is utilized to determine baseline toxicity.
# [6] = test system: human coronary artery smooth muscle cell; assay: In vitro cell culture study of coronary artery smooth muscle cell proliferation; assay type: cell-based
# Description: FIG. 51 is a graph of the inhibition of coronary artery smooth muscle cells by trichostatin A in a cell culture study.
# tumor cell lines = settings: cited from earlier work
smiles,measurement,setting,value
CO[C@H]1C[C@@H]2CC[C@@H](C)[C@@](O)(O2)C(=O)C(=O)N2CCCC[C@H]2C(=O)O[C@H]([C@H](C)C[C@@H]2CC[C@@H](OC(=O)C(C)(CO)CO)[C@H](OC)C2)CC(=O)[C@H](C)/C=C(\C)[C@@H](O)[C@@H](OC)C(=O)[C@H](C)C[C@H](C)/C=C/C=C/C=C/1C [CCI-779],concentration in the final solution (HPLC assay),"[1]; ethanol (less than two percent), Vitamin E TPGS and water",15000 µg/mL
"Nc1nc(Cl)nc2c1ncn2[C@H]1C[C@H](O)[C@@H](CO)O1 [Cladribine, 2-chlorodeoxyadenosine]",effect on the anti-proliferative activity of rapamycin when added,[2],increases the percent inhibition of rapamycin alone
same,inhibition of human coronary artery smooth muscle cell proliferation,"[2]; non-synchronized, two percent fetal bovine serum, FIG. 58",completely inhibits
same,potency as inhibitor of smooth muscle cells relative to endothelial cells,[3],approximately twice
"COc1cc([C@@H]2c3cc4c(cc3[C@@H](O[C@@H]3O[C@@H]5CO[C@@H](C)O[C@H]5[C@H](O)[C@H]3O)[C@H]3COC(=O)[C@H]23)OCO4)cc(OC)c1O [Etoposide, etoposide]",effect on the anti-proliferative activity of rapamycin when added,[4],increases the percent inhibition of rapamycin alone
same,cytotoxicity,cell viability; concentrations up to ten micromolar,non-cytotoxic
"COc1cc2c(cc1O)CC[C@@H]1[C@@H]2CC[C@]2(C)[C@@H](O)CC[C@@H]12 [Panzem®, 2-methoxyestradiol]",inhibition of human coronary artery smooth muscle cell proliferation in vitro,[4]; FIG. 66,extremely effective inhibitor
same,effect on the anti-proliferative activity of rapamycin when added,[4],increases the percent of inhibition of rapamycin alone
same,cell survival (MTS assay),[5],do not reduce human coronary artery smooth muscle cell survival
"CO[C@H]1C[C@@H]2CC[C@@H](C)[C@@](O)(O2)C(=O)C(=O)N2CCCC[C@H]2C(=O)O[C@H]([C@H](C)C[C@@H]2CC[C@@H](O)[C@H](OC)C2)CC(=O)[C@H](C)/C=C(\C)[C@@H](O)[C@@H](OC)C(=O)[C@H](C)C[C@H](C)/C=C/C=C/C=C/1C [Rapamycin, rapamycin]",concentration relative to the solubility of sirolimus in water,"[1]; 4 mg/ml formulation with PEG 200, ethanol and water",four hundred to about one thousand
"CC[C@@]1(O)C(=O)OCc2c1cc1n(c2=O)Cc2cc3c(CN(C)C)c(O)ccc3nc2-1 [Topotecan, topotecan]",effect on the anti-proliferative activity of rapamycin when added,[4],increases the percent inhibition of rapamycin alone
same,cytotoxicity,cell viability; concentrations up to one micromolar,non-cytotoxic
COc1c(C)c2c(c(O)c1C/C=C(\C)CCC(=O)O)C(=O)OC2 [mycophenolic acid],effect on the anti-proliferative activity of rapamycin when added,[2],potentiates the anti-proliferative activity of rapamycin
CC(/C=C/C(=O)NO)=C\[C@@H](C)C(=O)c1ccc(N(C)C)cc1 [trichostatin A],IC50,"[6]; human coronary artery smooth muscle cell proliferation, read-out: anti-proliferative IC50",~6 nM
same,inhibition of human coronary artery smooth muscle cell proliferation,[6]; in vitro cell culture,completely inhibit
same,anti-proliferative IC50,tumor cell lines,low nM range
